Tested on: Acinetobacter baumannii isolates
Test: Antimicrobial susceptibility test, disc diffusion method (CLSI M100-S24)
Assay type: cell-based
Design: key to Inhibition zone: “NZ” indicated that no zone of inhibition was observed
Settings: for susceptibility category: AK disc; for Inhibition zone: disc diffusion
Method: A total of 33 non-duplicate, non-consecutive clinical isolates of Multi-Drug Resistant (MDR) Acinetobacter baumannii were collected from burn wards (“AB1-AB33”). Acinetobacter baumannii ATCC BAA 747 and Pseudomonas aeruginosa ATCC 27853 were used as control strains. The isolates were stored at −80° C. in trypticase soy broth containing 20% glycerol.
Antimicrobial susceptibility tests of the collection of isolates were conducted using the disc diffusion method. The experiment was performed according to the recommendations and guidelines of Clinical Laboratory Standard Institutes (CLSI M100-S24; 2014). Clinical and Laboratory Standards Institute (CLSI), “Performance standards for antimicrobial susceptibility testing; twenty-fourth informational supplement,” Document M100-S24, Clinical and Laboratory Standards Institute (CLSI), Wayne, Pa., USA, 2014.
A panel of commercial antibiotic discs (Amoxicillin (AMX), Amoxicillin/clavulanic acid (AMX/CLA), Piperacillin (PIP), Piperacillin/Tazobactam (PIP/TAZ), Ceftazidime (CAZ), Cefotaxime (CTX), Cefepime (FEP), Cefoxitin (FOX), Aztreonam (ATM), Imipenem (IP), Gentamicin (GEN), Amikacin (AK), Neomycin (NEO), Levofloxacin (LEV), Chloramphenicol (CHL), Tetracycline (TET), sulfamethoxazole/trimethoprim (SUL/TRI) was used for susceptibility testing. All commercial antibiotic discs were purchased from BBL (Becton Dickinson, USA).
Forty grams of Mueller-Hinton Agar (MHA) were suspended in 1 Liter distilled water and then boiled to dissolve the powder completely. The medium was sterilized by autoclaving at 121° C. for 15 min. After autoclaving, the medium was cooled to 45° C. and 25 mL of molten agar media was poured into sterile Petri dishes (90 mm diameter) to give a depth of about 4 mm. The surface of the agar was dried to remove excess moisture before use. The plates were stored at 4-8° C. in sealed plastic bags if not used immediately.
The inoculum suspension was prepared by selecting three to five morphologically similar colonies from overnight growth (16-24 h of incubation) on blood agar medium. […] The suspension density was measured using a UV spectrophotometer calibrated with a 0.5 McFarland standard. The density of the suspension was adjusted to McFarland 0.5 by addition of saline or more microorganisms. The adjusted inoculum suspension was used within 60 min of preparation.
A sterile cotton swab was dipped into the bacterial suspension and the excess fluid was removed by turning the swab against the inside wall of the tube to avoid over-inoculation of plates. The inoculum was spread evenly over the entire surface of the agar plate by swabbing in three directions.
The predetermined panel of antimicrobial disks was applied firmly on the inoculated Mueller-Hinton agar surface within 15 min of inoculation of the plates by a disc dispenser device. A maximum of six disks were accommodated on a 90-mm circular plate.
Within 15 min of application of antimicrobial disks, the plates were inverted and incubated aerobically at 35-37° C. for 18-20 h.
After incubation, inhibition zones were measured at the point where no obvious growth is detected by the unaided eye when the plate is held about 30 cm from the eye. Inhibition zone diameters were measured to the nearest millimeter with a ruler. The plates were read from the back of the plate with reflected light against a dark background. Zone diameters were interpreted and categorized as susceptible “S”, intermediate “I”, or resistant “R” according to the CLSI clinical breakpoint tables (see Table 1 and Table 2).

With `NCC[C@H](O)C(=O)N[C@@H]1C[C@H](N)[C@@H](O[C@H]2O[C@H](CN)[C@@H](O)[C@H](O)[C@H]2O)[C@H](O)[C@H]1O[C@H]1O[C@H](CO)[C@@H](O)[C@H](N)[C@H]1O` [AK, Amikacin] the susceptibility category (isolate AB1) was “S (Sensitive ≥17)”, the Inhibition zone (isolate AB1) was 24 mm and the susceptibility category (isolate AB2) was “S (Sensitive ≥17)”. For the same compound, the Inhibition zone (isolate AB2) was 20 mm, the susceptibility category (isolate AB3) was “S (Sensitive ≥17)” and the Inhibition zone (isolate AB3) was 26 mm. The susceptibility category (isolate AB4) was “S (Sensitive ≥17)”, the Inhibition zone (isolate AB4) was 21 mm and the Inhibition zone (isolate AB5) was 7 mm. For the same compound, the susceptibility category (isolate AB6) was “S (Sensitive ≥17)”, the Inhibition zone (isolate AB6) was 30 mm and the Inhibition zone (isolate AB7) was “NZ”. For the same compound, the Inhibition zone (isolate AB8) was 12 mm, the susceptibility category (isolate AB9) was “S (Sensitive ≥17)” and the Inhibition zone (isolate AB9) was 22 mm. For the same compound, the Inhibition zone (isolate AB10) was “NZ”, the Inhibition zone (isolate AB11) was “NZ” and the susceptibility category (isolate AB12) was “S (Sensitive ≥17)”. The Inhibition zone (isolate AB12) was 21 mm, the susceptibility category (isolate AB13) was “S (Sensitive ≥17)” and the Inhibition zone (isolate AB13) was 22 mm. For the same compound, the Inhibition zone (isolate AB14) was “NZ”, the Inhibition zone (isolate AB15) was 13 mm and the susceptibility category (isolate AB16) was “S (Sensitive ≥17)”. For the same compound, the Inhibition zone (isolate AB16) was 19 mm, the susceptibility category (isolate AB17) was “S (Sensitive ≥17)” and the Inhibition zone (isolate AB17) was 22 mm. For the same compound, the Inhibition zone (isolate AB18) was 14 mm, the Inhibition zone (isolate AB19) was 14 mm and the Inhibition zone (isolate AB20) was “NZ”. For the same compound, the Inhibition zone (isolate AB21) was 11 mm, the Inhibition zone (isolate AB22) was “NZ” and the Inhibition zone (isolate AB23) was “NZ”. The Inhibition zone (isolate AB24) was 14 mm, the Inhibition zone (isolate AB25) was “NZ” and the susceptibility category (isolate AB26) was “S (Sensitive ≥17)”. The Inhibition zone (isolate AB26) was 18 mm, the Inhibition zone (isolate AB27) was 9 mm and the Inhibition zone (isolate AB28) was 15 mm. For the same compound, the Inhibition zone (isolate AB29) was 15 mm, the Inhibition zone (isolate AB30) was 15 mm and the Inhibition zone (isolate AB31) was “NZ”. The Inhibition zone (isolate AB32) was “NZ”, the susceptibility category (isolate AB33) was “S (Sensitive ≥17)” and the Inhibition zone (isolate AB33) was 25 mm.
